Measurements: PMC11189555, “Aryl amino acetamides prevent Plasmodium falciparum ring development via targeting the lipid-transfer protein PfSTART1” (Nature Communications, 2024)
Like-named read-outs stand apart in the source and are kept apart here.

Tested on: PopD F7 M-833 resistant clone (PfSTART1 N309K)
Assay: Growth inhibition assay (72 h, LDH activity)
Assay type: cell-based, Plasmodium falciparum
Procedure, shortened: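 Synchronised ring-stage 3D7-derived clones (0.3-0.6% parasitemia, 2% haematocrit) grown 72 h in compound serial dilutions, some with 0, 0.25 or 2.5 mM glucosamine. Growth read as LDH activity after freeze-thaw (Malstat/NBT, A650), normalised to DMSO and uninfected RBC; EC50 from variable-slope log(inhibitor) fit.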

`Cc1cc(Cl)c(S(=O)(=O)N2CCCC2)cc1OCC(=O)NC1CCCCC1` [M-833] was tested, and the “Normalised to DMSO” value (M-833 0.0390625 uM, Pop D-F7 replicate 1) was 102.746, the “Normalised to DMSO” value (M-833 0.0390625 uM, Pop D-F7 replicate 3) was 104.013 and the “Normalised to DMSO” value (M-833 0.078125 uM, Pop D-F7 replicate 1) was 103.501. For the same molecule, the “Normalised to DMSO” value (M-833 0.078125 uM, Pop D-F7 replicate 3) was 102.629, the “Normalised to DMSO” value (M-833 0.15625 uM, Pop D-F7 replicate 1) was 104.635 and the “Normalised to DMSO” value (M-833 0.15625 uM, Pop D-F7 replicate 3) was 103.875. The “Normalised to DMSO” value (M-833 0.3125 uM, Pop D-F7 replicate 1) was 106.297, the “Normalised to DMSO” value (M-833 0.3125 uM, Pop D-F7 replicate 3) was 100.415 and the “Normalised to DMSO” value (M-833 0.625 uM, Pop D-F7 replicate 1) was 98.8413. The “Normalised to DMSO” value (M-833 0.625 uM, Pop D-F7 replicate 3) was 99.3081, the “Normalised to DMSO” value (M-833 1.25 uM, Pop D-F7 replicate 1) was 89.7985 and the “Normalised to DMSO” value (M-833 1.25 uM, Pop D-F7 replicate 3) was 89.8985. For the same molecule, the “Normalised to DMSO” value (M-833 2.5 uM, Pop D-F7 replicate 1) was 74.9622, the “Normalised to DMSO” value (M-833 2.5 uM, Pop D-F7 replicate 3) was 59.8708 and the “Normalised to DMSO” value (M-833 5 uM, Pop D-F7 replicate 1) was 50.7053. The “Normalised to DMSO” value (M-833 5 uM, Pop D-F7 replicate 3) was 43.6808, the “Normalised to DMSO” value (M-833 10 uM, Pop D-F7 replicate 1) was 28.7406 and the “Normalised to DMSO” value (M-833 10 uM, Pop D-F7 replicate 3) was 39.9446. It also gave an inhibition at 0.0390625 µM (Plasmodium falciparum, M-833 0.0390625 uM, Pop D-F7 replicate 1, read-out: % Inhibition) of -2.75%, an inhibition at 0.0390625 µM (Plasmodium falciparum, M-833 0.0390625 uM, Pop D-F7 replicate 3, read-out: % Inhibition) of -4.01% and an inhibition at 0.078125 µM (Plasmodium falciparum, M-833 0.078125 uM, Pop D-F7 replicate 1, read-out: % Inhibition) of -3.5%. For the same molecule, the inhibition at 0.078125 µM (Plasmodium falciparum, M-833 0.078125 uM, Pop D-F7 replicate 3, read-out: % Inhibition) was -2.63%, the inhibition at 0.15625 µM (Plasmodium falciparum, M-833 0.15625 uM, Pop D-F7 replicate 1, read-out: % Inhibition) was -4.63% and the inhibition at 0.15625 µM (Plasmodium falciparum, M-833 0.15625 uM, Pop D-F7 replicate 3, read-out: % Inhibition) was -3.87%. It also gave an inhibition at 0.3125 µM (Plasmodium falciparum, M-833 0.3125 uM, Pop D-F7 replicate 1, read-out: % Inhibition) of -6.3%, an inhibition at 0.3125 µM (Plasmodium falciparum, M-833 0.3125 uM, Pop D-F7 replicate 3, read-out: % Inhibition) of -0.415% and an inhibition at 0.625 µM (Plasmodium falciparum, M-833 0.625 uM, Pop D-F7 replicate 1, read-out: % Inhibition) of 1.16%. The inhibition at 0.625 µM (Plasmodium falciparum, M-833 0.625 uM, Pop D-F7 replicate 3, read-out: % Inhibition) was 0.692%, the inhibition at 1.25 µM (Plasmodium falciparum, M-833 1.25 uM, Pop D-F7 replicate 1, read-out: % Inhibition) was 10.2% and the inhibition at 1.25 µM (Plasmodium falciparum, M-833 1.25 uM, Pop D-F7 replicate 3, read-out: % Inhibition) was 10.1%. The inhibition at 2.5 µM (Plasmodium falciparum, M-833 2.5 uM, Pop D-F7 replicate 1, read-out: % Inhibition) was 25%, the inhibition at 2.5 µM (Plasmodium falciparum, M-833 2.5 uM, Pop D-F7 replicate 3, read-out: % Inhibition) was 40.1% and the inhibition at 5 µM (Plasmodium falciparum, M-833 5 uM, Pop D-F7 replicate 1, read-out: % Inhibition) was 49.3%. It also gave an inhibition at 5 µM (Plasmodium falciparum, M-833 5 uM, Pop D-F7 replicate 3, read-out: % Inhibition) of 56.3%, an inhibition at 10 µM (Plasmodium falciparum, M-833 10 uM, Pop D-F7 replicate 1, read-out: % Inhibition) of 71.3% and an inhibition at 10 µM (Plasmodium falciparum, M-833 10 uM, Pop D-F7 replicate 3, read-out: % Inhibition) of 60.1%. The inhibition at 0.0390625 µM (Plasmodium falciparum, Pop D-F7 replicate 1, M-833 0.0390625 uM) was -0.465%, the inhibition at 0.078125 µM (Plasmodium falciparum, Pop D-F7 replicate 1, M-833 0.078125 uM) was -0.401% and the inhibition at 0.15625 µM (Plasmodium falciparum, Pop D-F7 replicate 1, M-833 0.15625 uM) was 3.58%. For the same molecule, the inhibition at 0.3125 µM (Plasmodium falciparum, Pop D-F7 replicate 1, M-833 0.3125 uM) was 2.21%, the inhibition at 0.625 µM (Plasmodium falciparum, Pop D-F7 replicate 1, M-833 0.625 uM) was 8.79% and the inhibition at 1.25 µM (Plasmodium falciparum, Pop D-F7 replicate 1, M-833 1.25 uM) was 10.1%. The inhibition at 2.5 µM (Plasmodium falciparum, Pop D-F7 replicate 1, M-833 2.5 uM) was 29%, the inhibition at 5 µM (Plasmodium falciparum, Pop D-F7 replicate 1, M-833 5 uM) was 45.3% and the inhibition at 10 µM (Plasmodium falciparum, Pop D-F7 replicate 1, M-833 10 uM) was 71.1%. The EC50 (Plasmodium falciparum, read-out: EC50 (95% confidence interval)) was 2.97 µM, the “Normalised to DMSO” value (Pop D-F7 replicate 1, M-833 0.0390625 uM) was 100.465 and the “Normalised to DMSO” value (Pop D-F7 replicate 1, M-833 0.078125 uM) was 100.401. The “Normalised to DMSO” value (Pop D-F7 replicate 1, M-833 0.15625 uM) was 96.4217, the “Normalised to DMSO” value (Pop D-F7 replicate 1, M-833 0.3125 uM) was 97.7856 and the “Normalised to DMSO” value (Pop D-F7 replicate 1, M-833 0.625 uM) was 91.2067. The “Normalised to DMSO” value (Pop D-F7 replicate 1, M-833 1.25 uM) was 89.8748, the “Normalised to DMSO” value (Pop D-F7 replicate 1, M-833 2.5 uM) was 70.9884 and the “Normalised to DMSO” value (Pop D-F7 replicate 1, M-833 5 uM) was 54.6534. For the same molecule, the “Normalised to DMSO” value (Pop D-F7 replicate 1, M-833 10 uM) was 28.9313.
